Experiments:
MCF-7 (ER+) = test: MTT growth inhibition assay, MCF-7 breast cancer cells; format: cell-based
Method: (§1) Compounds of the invention were tested for their ability to inhibit growth in two breast cancer cell lines, MCF-7 (ER+) and MDA-MB-231 (ER−).
(§2) The growth inhibition assays were conducted using routine methods. Briefly, the cells were seeded in 24-well plates at a density of 2000 cells per well in 200 μL of […] growth medium. To each well was added 10 μL of DMSO containing the dissolved test compound; final DMSO concentration in each well was not more than 0.5%. Each test compound was assayed at concentrations of 0.4, 2, 10, and 50 μM. The plates were incubated for eight days, with the media and test solutions replaced every third day. On Day 8, the viable cells were measured by the MTT assay, as described in Mosmann et al. (1983), “Rapid Colorimetric Assay for Cellular Growth and Survival: Application to Proliferation and Cytotoxicity,” J. Immunol. Method. 65:55–63. The optical density at 575 nm of each test well was measured and compared to that for control wells, and the data used to calculate the percentage of growth inhibition at different concentrations. The IC50 value (the concentration of growth inhibitor that results in 50% growth inhibition of the cells in culture relative to control cells not exposed to any growth inhibitor) was determined by plotting dose-response curves.
(§3) The calculated IC50 values are set forth in Table 1, with the results representing the average of at least two experiments conducted for each compound at each of the four concentrations.
(§4) The foregoing procedures were repeated with additional compounds of the invention to evaluate the their ability to inhibit growth in MCF-7 (ER+) and MDA-MB-231 (ER−).

MDA-MB-231 (ER−) = test: MTT growth inhibition assay, MDA-MB-231 breast cancer cells; format: cell-based
Method: as §1, §2, §3, §4

MCF-7 cells = test: Cell cycle studies in MCF-7 cells; format: cell-based; conditions: 10 μM
Description: To establish that the analogs of EGCG also act via the same mechanisms as EGCG itself, the active analog SR 13196 in cell cycle studies in MCF-7 cells was examined.

in vitro = conditions: human, Caco-2, pH 7.4
Description: (§5) The Caco-2 human colon adenocarcinoma cell line has become accepted as a predictive model for human intestinal absorption. […] The transport is reported as a permeability coefficient, P(app), which is compared to those of the known standards.

[1] = test system: human lung tumor cells (A427); test: Anchorage-independent growth inhibition assay (colony formation in soft agar); format: cell-based; conditions: for Expected Colonies: A427 cells, (cells plated)(Surviving Fraction)(Frequency)
Method: (§6) An anchorage-independent growth inhibition assay was performed as described in Korytynski, et al. (1996) “The development of an anchorage-independence assay using human lung tumor cells to screen potential chemopreventive agents,” Anticancer Res. 16, 1091–1094; and Sharma, et al. (1997) “The anchorage-independent assay as a screening tool to identify potential chemopreventive agents,” Methods Cell Sci. 19, 9–12. The assay measures the inhibition of colony formation of human lung tumor cells (A427) cells grown in soft agar. In this assay, A427 cells were grown in the presence of the test agent, SR 13196, EGCG or 13-cis-RA Control samples were tested using an equivalent volume of DMSO alone. A concurrent assay for cell survival was also performed.
(§7) Thus, SR 13196 inhibits colony formation of A427 cells in vitro, as well as their survival, and in a dose-dependent manner.

A427 cells = test: Concurrent assay for cell survival; format: cell-based, human; conditions: highest concentration tested (25 μM)
Method: as §6, §7

[2] = standards of known oral bioavailability; cited from earlier work
[3] = test system: Caco-2 human colon adenocarcinoma cell line; test: Caco-2 intestinal permeability model; conditions: for Papp: Caco-2, pH 7.4
Description: as §5

[4] = Table 2 (repeat run with additional compounds), 8 days
[5] = Homo sapiens, MCF7, 192 h, Table 2 (repeat run with additional compounds), 8 days
[6] = Homo sapiens, MDA-MB-231, 192 h, Table 2 (repeat run with additional compounds), 8 days
[7] = Homo sapiens, MCF7, 192 h, Table 1, 8 days
[8] = Homo sapiens, MDA-MB-231, 192 h, Table 1, 8 days

SMILES: Cc1cc(C(=O)O[C@@H]2Cc3c(O)cc(O)cc3O[C@@H]2c2cc(C)c(O)c(C)c2)cc(C)c1O [SR 13916]
- IC50 (MCF-7 (ER+); [4]): 6.61 µM
- IC50 (MDA-MB-231 (ER−); [4]): 10.2 µM

SMILES: COc1cc(OC)c2c(c1)O[C@H](c1cc(O)c(O)c(O)c1)[C@H](OC(=O)c1cc(C)c(O)c(C)c1)C2 [SR 13200]
- IC50 (MCF-7 (ER+); [5]): 22.9 µM
- IC50 (MDA-MB-231 (ER−); [6]): 22.6 µM

SMILES: COc1cc([C@H]2Oc3cc(O)cc(O)c3C[C@H]2OC(=O)c2cc(C)c(O)c(C)c2)cc(OC)c1OC (relative stereo) [SR 13196]
- effect on cell cycle (MCF-7 cells): arrests the cell cycle in G1
- Papp at 100 μM (in vitro): 6.82 ± 0.83 ×10⁻⁶ cm/s
- IC50 (MCF-7 (ER+); [7]): 8.39 µM
- IC50 (MDA-MB-231 (ER−); [8]): 19.6 µM
- inhibition of colony formation, in words ([1]; A427 cells in soft agar): inhibited colony formation to a much greater extent than either EGCG or 13-cis-RA
- Expected Colonies ([1]; 1.56 μM): 277
- Expected Colonies ([1]; 3.12 μM): 160
- Expected Colonies ([1]; 6.25 μM): 67
- Expected Colonies ([1]; 12.5 μM): 52
- inhibition at 1.56 µM ([1]; Homo sapiens, A-427, A427 cells in soft agar, 1.56 μM): 4%
- inhibition at 3.12 µM ([1]; Homo sapiens, A-427, A427 cells in soft agar, 3.12 μM): 32%
- inhibition at 6.25 µM ([1]; Homo sapiens, A-427, A427 cells in soft agar, 6.25 μM): 43%
- inhibition at 12.5 µM ([1]; Homo sapiens, A-427, A427 cells in soft agar, 12.5 μM): 46%
- inhibition at 25 µM ([1]; Homo sapiens, A-427, A427 cells in soft agar, 25 μM): 81%

SMILES: COc1cc([C@H]2Oc3cc(O)cc(O)c3C[C@H]2OC(=O)c2cc(C)c(O)c(C)c2)cc(OC)c1O [SR 13920]
- IC50 (MCF-7 (ER+); [4]): 33.1 µM
- IC50 (MDA-MB-231 (ER−); [4]): 9.97 µM

SMILES: CC1=C(/C=C/C(C)=C/C=C/C(C)=C\C(=O)O)C(C)(C)CCC1 [Compound 13-cis-RA, reference compound]
- surviving cells (A427 cells): 68%
- Expected Colonies ([1]; 1.56 μM): 332
- Expected Colonies ([1]; 3.12 μM): 320
- Expected Colonies ([1]; 6.25 μM): 289
- Expected Colonies ([1]; 12.5 μM): 265
- Expected Colonies ([1]; 25 μM): 254

SMILES: Cc1cc([C@H]2Oc3cc(O)cc(O)c3C[C@H]2OC(=O)c2cc(O)c(O)c(O)c2)cc(C)c1O [SR 13918]
- IC50 (MCF-7 (ER+); [4]): > 100 µM
- IC50 (MDA-MB-231 (ER−); [4]): 46.8 µM

SMILES: CN1C(=O)CN=C(c2ccccc2)c2cc(Cl)ccc21 [Diazepam, diazepam]
- % Absorbed (literature value) [2]: 100%

SMILES: Nc1nc(O)c2ncn(COC(CO)CO)c2n1 [Ganciclovir, ganciclovir]
- % Absorbed (literature value) [2]: 3%

SMILES: O=C(O[C@@H]1Cc2c(O)cc(O)cc2O[C@@H]1c1cc(O)c(O)c(O)c1)c1cc(O)c(O)c(O)c1 [EGCG, (−)-epigallocatechin-3-gallate, reference compound]
- effect on cell cycle (MCF-7 cells): arrests the cell cycle in G1
- permeability coefficient (Papp), in words ([3]; Caco-2 model, summary of the experiments): low permeability coefficient
- IC50 (MCF-7 (ER+); [4]): 37.1 µM
- IC50 (MDA-MB-231 (ER−); [4]): 36.9 µM
- Expected Colonies ([1]; 1.56 μM): 386
- Expected Colonies ([1]; 3.12 μM): 382
- Expected Colonies ([1]; 6.25 μM): 378
- Expected Colonies ([1]; 12.5 μM): 331
- Expected Colonies ([1]; 25 μM): 191

SMILES: Cc1cc(C)c2c(c1)O[C@H](c1cc(O)c(O)c(O)c1)[C@H](OC(=O)c1cc(C)c(O)c(C)c1)C2 [SR 13913]
- Papp at 100 μM (in vitro): < 0.06 ×10⁻⁶ cm/s
- IC50 (MCF-7 (ER+); [5]): 17.2 µM

SMILES: Cc1cc([C@H]2Oc3cc(O)cc(O)c3CC2OC(=O)c2cc(O)c(O)c(O)c2)cc(C)c1O (stereo partly drawn) [SR 13917]
- IC50 (MCF-7 (ER+); [4]): 6.12 µM
- IC50 (MDA-MB-231 (ER−); [4]): 2.98 µM

SMILES: COc1cc([C@H]2Oc3cc(O)cc(O)c3C[C@H]2OC(=O)c2cc(O)c(O)c(O)c2)cc(OC)c1O [SR 13915]
- Papp [3]: 5.17 ± 0.49 ×10⁻⁶ cm/s
- IC50 (MCF-7 (ER+); [4]): > 100 µM
- IC50 (MDA-MB-231 (ER−); [4]): > 100 µM

SMILES: COc1cc([C@H]2Oc3cc(O)cc(O)c3C[C@H]2OC(=O)c2cc(O)c(O)c(O)c2)cc(OC)c1OC [SR 13195, cis-5,7-DIHYDROXY-2-(3,4,5-TRIMETHOXY-PHENYL)-3,4-DIHYDRO-2H-CHROMAN-3-YL, 3,4,5-TRIHYDROXY-BENZOIC ACID ESTER]
- IC50 (MCF-7 (ER+); [7]): > 100 µM
- IC50 (MDA-MB-231 (ER−); [8]): > 100 µM

SMILES: COc1cc(C(=O)O[C@@H]2Cc3c(C)cc(C)cc3O[C@@H]2c2cc(O)c(O)c(O)c2)cc(OC)c1OC [SR 13919]
- Papp [3]: < 0.06 ×10⁻⁶ cm/s
- IC50 (MCF-7 (ER+); [4]): 8.35 µM
- IC50 (MDA-MB-231 (ER−); [4]): 7.76 µM

SMILES: COc1cc(OC)c2c(c1)OC(c1cc(O)c(O)c(O)c1)[C@H](OC(=O)c1cc(O)c(O)c(O)c1)C2 (stereo partly drawn) [SR 13198, trans-5,7-DIMETHOXY-2-(3,4,5-TRIHYDROXY-PHENYL)-3,4-DIHYDRO-2H-CHROMAN-3-YL, 3,4,5-TRIHYDROXY-BENZOIC ACID ESTER]
- IC50 (MCF-7 (ER+); [5]): 42.1 µM
- IC50 (MDA-MB-231 (ER−); [6]): 35.9 µM

SMILES: Cc1cc(C)c2c(c1)O[C@H](c1cc(O)c(O)c(O)c1)[C@H](OC(=O)c1cc(O)c(O)c(O)c1)C2 [SR 13912]
- IC50 (MCF-7 (ER+); [5]): 21.8 µM
- IC50 (MDA-MB-231 (ER−); [6]): 53.7 µM

SMILES: COc1cc(C2Oc3cc(O)cc(O)c3C[C@H]2OC(=O)c2cc(O)c(O)c(O)c2)cc(OC)c1OC (stereo partly drawn) [SR 13194, trans-5,7-DIHYDROXY-2-(3,4,5-TRIMETHOXY-PHENYL)-3,4-DIHYDRO-2H-CHROMAN-3-YL, 3,4,5-TRIHYDROXY-BENZOIC ACID ESTER]
- IC50 (MCF-7 (ER+); [7]): > 100 µM
- IC50 (MDA-MB-231 (ER−); [8]): > 100 µM

SMILES: Cc1cc(C)c2c(c1)OC(c1cc(O)c(O)c(O)c1)[C@H](OC(=O)c1cc(O)c(O)c(O)c1)C2 (stereo partly drawn) [SR 13911]
- Papp at 100 μM (in vitro): 1.42 ± 1.6 ×10⁻⁶ cm/s
- IC50 (MCF-7 (ER+); [5]): 23.6 µM
- IC50 (MDA-MB-231 (ER−); [6]): 25.7 µM

Reference: patent US7109236B2, “Analogs of green tea polyphenols as chemotherapeutic and chemopreventive agents” (SRI International, priority 2002, dated 2006)
